Measured values taken from patent publication EP0897904B1, “Fungicidal 2-methoxybenzophenones” (BASF AKTIENGESELLSCHAFT, priority 1997, dated 1999).
Where two headings read alike, the source gives them in different places.

Assays:
Format in all cases: in vivo
[1] = tested on: Blumeria (Erysiphe) graminis DC. f.sp. tritici E. Marchal; assay: Zero day protectant test, Wheat Powdery Mildew (WPM); details: wheat variety Kanzler, 0 day protectant test, side-by-side, technical material in 0.5% acetone 0.05% Tween 20 water
Source text: (§1) • (a) Wheat Powdery Mildew (WPM): HOST: Wheat (Triticum aestivum L.) variety Kanzler PATHOGEN: Blumeria (Erysiphe) graminis DC. f.sp. tritici E. Marchal • (b) Barley Powdery Mildew (BPM): HOST: Barley (Hordeum vulgare L.) variety Golden Promise PATHOGEN: Blumeria (Erysiphe) graminis DC. f.sp. hordei E. Marchal
(§2) This test is a zero day protectant test for control of wheat and barley powdery mildews. • 1. Wheat or barley seed (approximately 8-10/pot) is planted in 6 cm diameter plastic pots and maintained in the greenhouse. • 2. When the primary leaf is fully expanded, formulated test compounds are sprayed with a single nozzle overhead track sprayer at a rate of 200 l/ha. Plants are then allowed to air-dry. • 3. Inoculation follows about three hours after compound application. Plants are set up on greenhouse benches with bottom watering mats and inoculated by dusting them with conidia from powdery mildew infected plants (stock cultures at an age of 10-14 days). • 4. Disease on the primary leaf as percent leaf area with disease symptoms/signs is evaluated about 7 days after inoculation. The tips and bases of the leaves are excluded from the evaluation. Percent disease control is then calculated by the following formula: % disease control = 100 -(% infection in treated plants)/(% infection in untreated plants)x 100 [formula]
(§3) • 1. Technical compounds are formulated in a solvent/surfactant system consisting of […] acetone and 0.05% Tween 20 in deionized water. Compounds are dissolved in acetone prior to addition of the water; the Tween 20 can be added through either the acetone or the water. Dilutions are made using the solvent/surfactant system. Test compounds are typically tested over a range of concentrations covering several orders of magnitude and then ED values are calculated for comparison of compounds. Formulated compounds are prepared using deionized water. • 2. Two kinds of controls are included: • Plants treated with the solvent/surfactant solution and inoculated (Solvent Blank). • Untreated plants which are inoculated (Inoculated Control).
(§4) Compounds applied as technical material formulated in 0.5% acetone 0.05% Tween 20 water

[2] = tested on: Blumeria (Erysiphe) graminis DC. f.sp. hordei E. Marchal; assay: Zero day protectant test, Barley Powdery Mildew (BPM); details: barley variety Golden Promise, 0 day protectant test, side-by-side, technical material in 0.5% acetone 0.05% Tween 20 water
Source text: as §1, §2, §3, §4

[3] = tested on: Blumeria (Erysiphe) graminis DC. f.sp. tritici E. Marchal; assay: Curative and residual control test, Wheat Powdery Mildew (WPM); details: read-out: Disease control (% efficacy)
Source text: (§5) • (a) Wheat Powdery Mildew (WPM): HOST: Wheat (Triticum aestivum L.) variety Kanzler PATHOGEN: Blumeria (Erysiphe) graminis DC. f.sp. tritici E. Marchal • (b) Cucumber Powdery Mildew (QPM): HOST: Cucumber (Cucumis sativus L.) variety Bush pickle PATHOGEN: Erysiphe cichoracearum DC
(§6) This test procedure is for curative and residual control of powdery mildew diseases. • 1. Wheat seed (approximately 8-10/pot) or cucumber seed (1 seed / pot) is planted in 6 cm diameter plastic pots and maintained in the greenhouse. • 2. When the primary leaf (wheat) or the cotyledons (cucumber) is/are fully expanded, formulated test compounds are sprayed with a single nozzle overhead track sprayer at a rate of 200 l/ha. Plants are then allowed to air-dry. • 3. Inoculation precedes treatment by 2 or 3 days in the case of curative evaluations and follows treatment by 3 or 4 days in case of residual evaluations. For inoculation, plants are set up on greenhouse benches with bottom watering mats and inoculated by dusting them with conidia from powdery mildew infected plants (stock cultures at an age of 10-14 days). Between inoculation and treatment for curative evaluations and between treatment and inoculation for residual evaluations, plants are maintained in the greenhouse with bottom watering. • 4. Disease on the primary leaf (wheat) or on the cotyledons (cucumber) as percent leaf area with disease symptoms/signs is evaluated about 7 days after inoculation. In the case of wheat, the tips and bases of the leaves are excluded from the evaluation. Percent disease control is then calculated by the following formula: % disease control = 100 -(% infection in treated plants)/(% infection in untreated plants)x 100 [formula]
as §3, with “system.” for “system. Test compounds are typically tested over a range of concentrations covering several orders of magnitude and then ED values are calculated for comparison of compounds.”

[4] = tested on: Erysiphe cichoracearum DC; assay: Curative and residual control test, Cucumber Powdery Mildew (QPM); details: Golovinomyces cichoracearum, 72 h, read-out: Disease control (% efficacy); for Emax at 12.5 ppm: QPM 3 da R (3 day residual), 12,5 ppm; for Emax at 125 ppm / Emax at 1250 ppm: QPM 3 da R (3 day residual)
Source text: as §5, §6
as §3, with “system.” for “system. Test compounds are typically tested over a range of concentrations covering several orders of magnitude and then ED values are calculated for comparison of compounds.”

[5] = 48 h, WPM 2 da C (2 day curative), 12,5 ppm, Test B
[6] = 48 h, WPM 2 da C (2 day curative), 125 ppm, Test B
[7] = 48 h, WPM 2 da C (2 day curative), 1250 ppm, Test B
[8] = 72 h, WPM 3 da R (3 day residual), 12,5 ppm, Test B
[9] = 72 h, WPM 3 da R (3 day residual), 125 ppm, Test B
[10] = 72 h, WPM 3 da R (3 day residual), 1250 ppm, Test B
[11] = 72 h, WPM 3 da C (3 day curative)
[12] = 72 h, WPM 3 da C (3 day curative), 125 ppm
[13] = 96 h, WPM 4 da R (4 day residual)
[14] = 96 h, WPM 4 da R (4 day residual), 125 ppm

Row | SMILES | ED90 (ppm) [1] [ppm] | ED90 (ppm) [2] [ppm] | percent disease control at 12.5 ppm [3, 8] [%] | percent disease control at 125 ppm [3, 9] [%] | percent disease control at 1250 ppm [3, 10] [%] | Emax at 12.5 ppm ([4]; Test B) [%] | Emax at 125 ppm ([4]; Test B) [%] | Emax at 1250 ppm ([4]; Test B) [%] | percent disease control at 0.2 ppm [3, 11] [%] | percent disease control at 1 ppm [3, 11] [%] | percent disease control at 5 ppm [3, 11] [%] | percent disease control at 25 ppm [3, 11] [%] | percent disease control at 125 ppm [3, 12] [%] | percent disease control at 0.2 ppm [3, 13] [%] | percent disease control at 1 ppm [3, 13] [%] | percent disease control at 5 ppm [3, 13] [%] | percent disease control at 25 ppm [3, 13] [%] | percent disease control at 125 ppm [3, 14] [%] | other results
1 | COc1cc(C)c(C(=O)c2c(OC)ccc(Br)c2Cl)c(OC)c1OC [Example 4, 5-bromo-6-chloro-6'-methyl-2,2',3',4'-tetramethoxy-benzophenone] | 5 | 7 | 99 | 100 | 100 | 8 | 97 | 100 | – | – | – | – | – | – | – | – | – | – | percent disease control at 12.5 ppm [3, 5]: 55%; percent disease control at 125 ppm [3, 6]: 71%; percent disease control at 1250 ppm [3, 7]: 61%
2 | COc1cc(C)c(C(=O)c2c(OC)ccc(Br)c2C)c(OC)c1OC [Example 6, 5-bromo-6,6'-dimethyl-2,2',3',4'-tetramethoxy-benzophenone] | 0.1 | 0.9 | 100 | 100 | 100 | 35 | 92 | 100 | 17 | 27 | 43 | 60 | 64 | 58 | 90 | 100 | 100 | 100 | percent disease control at 12.5 ppm ([3]; 48 h, WPM 2 da C (2 day curative), 12,5 ppm, Test A): 90%; Emax at 12.5 ppm [3, 5]: 61%; percent disease control at 125 ppm ([3]; 48 h, WPM 2 da C (2 day curative), 125 ppm, Test A): 95%; Emax at 125 ppm [3, 6]: 89%; percent disease control at 1250 ppm ([3]; 48 h, WPM 2 da C (2 day curative), 1250 ppm, Test A): 98%; Emax at 1250 ppm [3, 7]: 87%; percent disease control at 12.5 ppm ([3]; 72 h, WPM 3 da R (3 day residual), 12,5 ppm, Test A): 100%; percent disease control at 125 ppm ([3]; 72 h, WPM 3 da R (3 day residual), 125 ppm, Test A): 100%; percent disease control at 1250 ppm ([3]; 72 h, WPM 3 da R (3 day residual), 1250 ppm, Test A): 100%; Emax at 12.5 ppm ([4]; Test A): 2%; Emax at 125 ppm ([4]; Test A): 92%; Emax at 1250 ppm ([4]; Test A): 100%
3 | COc1cc(C)c(C(=O)c2c(OC)ccc(C(F)(F)F)c2C)c(OC)c1OC [Example 64, 6,6'-dimethyl-2,2',3',4'-tetramethoxy-5-trifluoromethyl-benzophenone] | – | – | – | – | – | – | – | – | 10 | 37 | 48 | 60 | 72 | 51 | 89 | 99 | 100 | 100 | –
4 | COc1cc(C)c(C(=O)c2c(OC)cccc2C(F)(F)F)c(OC)c1OC [Example 65, 6'-methyl-2,2',3',4'-tetramethoxy-6-trifluoromethyl-benzophenone] | – | – | – | – | – | – | – | – | 10 | 23 | 23 | 48 | 58 | 25 | 50 | 93 | 99 | 100 | –
5 | Fc1ccc(Oc2ccnc3cc(Cl)cc(Cl)c23)cc1 [Quinoxyfen, reference compound] | 12 | 26 | – | – | – | – | – | – | – | – | – | – | – | – | – | – | – | – | –
